Test results taken from ChEMBL document CHEMBL4507276 (2021).

Tests used:
[1] = target: T1, Dual specificity mitogen-activated protein kinase kinase 6 (Homo sapiens) (UniProt P52564); assay: MAP2K6_S_T_E Invitrogen selectivity data (BI); settings: Compound concentration 3.0 uM
T1 sequence (whole entry): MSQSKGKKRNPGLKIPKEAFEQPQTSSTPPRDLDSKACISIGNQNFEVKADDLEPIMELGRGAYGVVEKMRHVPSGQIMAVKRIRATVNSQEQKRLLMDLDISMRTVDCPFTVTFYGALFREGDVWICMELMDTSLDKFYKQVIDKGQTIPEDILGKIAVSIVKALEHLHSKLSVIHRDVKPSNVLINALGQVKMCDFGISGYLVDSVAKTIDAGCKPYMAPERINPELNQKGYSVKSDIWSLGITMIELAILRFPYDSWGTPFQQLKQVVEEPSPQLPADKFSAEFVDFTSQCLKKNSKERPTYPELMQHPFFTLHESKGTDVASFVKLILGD

[2] = target: Gamma-aminobutyric acid receptor subunit alpha-1 (Rattus norvegicus) (UniProt P62813); assay: GABAACENTR Eurofins-Panlabs selectivity data (BI); settings: Compound concentration 10.0 uM
[3] = target: Dual specificity mitogen-activated protein kinase kinase 2 (Homo sapiens) (UniProt P36507); assay: MAP2K2 Invitrogen selectivity data (BI); settings: Compound concentration 3.0 uM
[4] = target: T2, Aurora kinase C (Homo sapiens) (UniProt Q9UQB9); assay: AURKC Invitrogen selectivity data (BI); settings: Compound concentration 3.0 uM
T2 sequence (whole entry): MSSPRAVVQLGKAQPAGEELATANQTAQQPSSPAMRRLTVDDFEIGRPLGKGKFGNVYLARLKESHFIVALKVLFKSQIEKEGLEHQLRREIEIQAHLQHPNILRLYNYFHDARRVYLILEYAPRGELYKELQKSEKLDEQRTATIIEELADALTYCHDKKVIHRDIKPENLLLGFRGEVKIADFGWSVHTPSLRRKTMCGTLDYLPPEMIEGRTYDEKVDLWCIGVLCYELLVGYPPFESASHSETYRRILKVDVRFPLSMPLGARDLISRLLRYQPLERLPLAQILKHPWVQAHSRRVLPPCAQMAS

[5] = target: Serine/threonine-protein kinase Nek4 (Homo sapiens) (UniProt P51957); assay: NEK4 Invitrogen selectivity data (BI); settings: Compound concentration 3.0 uM
[6] = target: Serine/threonine-protein kinase 25 (Homo sapiens) (UniProt O00506); assay: STK25 Invitrogen selectivity data (BI); settings: Compound concentration 3.0 uM
[7] = target: Prostaglandin G/H synthase 2 (Homo sapiens) (UniProt P35354); assay: COX2_HU Cerep selectivity data (BI); settings: Compound concentration 20.0 uM
[8] = target: Insulin receptor (Homo sapiens) (UniProt P06213); assay: INSR Invitrogen selectivity data (BI); settings: Compound concentration 3.0 uM
[9] = target: Glucocorticoid receptor (Homo sapiens) (UniProt P04150); assay: GLUCOCORTICO Eurofins-Panlabs selectivity data (BI); settings: Compound concentration 10.0 uM
[10] = target: Mitogen-activated protein kinase 3 (Homo sapiens) (UniProt P27361); assay: MAPK3 Invitrogen selectivity data (BI); settings: Compound concentration 3.0 uM
[11] = target: Eukaryotic elongation factor 2 kinase (Homo sapiens) (UniProt O00418); assay: EEF2K Invitrogen selectivity data (BI); settings: Compound concentration 3.0 uM
[12] = target: T3, Serine/threonine-protein kinase Nek9 (Homo sapiens) (UniProt Q8TD19); assay: NEK9 Invitrogen selectivity data (BI); settings: Compound concentration 3.0 uM
T3 sequence (whole entry): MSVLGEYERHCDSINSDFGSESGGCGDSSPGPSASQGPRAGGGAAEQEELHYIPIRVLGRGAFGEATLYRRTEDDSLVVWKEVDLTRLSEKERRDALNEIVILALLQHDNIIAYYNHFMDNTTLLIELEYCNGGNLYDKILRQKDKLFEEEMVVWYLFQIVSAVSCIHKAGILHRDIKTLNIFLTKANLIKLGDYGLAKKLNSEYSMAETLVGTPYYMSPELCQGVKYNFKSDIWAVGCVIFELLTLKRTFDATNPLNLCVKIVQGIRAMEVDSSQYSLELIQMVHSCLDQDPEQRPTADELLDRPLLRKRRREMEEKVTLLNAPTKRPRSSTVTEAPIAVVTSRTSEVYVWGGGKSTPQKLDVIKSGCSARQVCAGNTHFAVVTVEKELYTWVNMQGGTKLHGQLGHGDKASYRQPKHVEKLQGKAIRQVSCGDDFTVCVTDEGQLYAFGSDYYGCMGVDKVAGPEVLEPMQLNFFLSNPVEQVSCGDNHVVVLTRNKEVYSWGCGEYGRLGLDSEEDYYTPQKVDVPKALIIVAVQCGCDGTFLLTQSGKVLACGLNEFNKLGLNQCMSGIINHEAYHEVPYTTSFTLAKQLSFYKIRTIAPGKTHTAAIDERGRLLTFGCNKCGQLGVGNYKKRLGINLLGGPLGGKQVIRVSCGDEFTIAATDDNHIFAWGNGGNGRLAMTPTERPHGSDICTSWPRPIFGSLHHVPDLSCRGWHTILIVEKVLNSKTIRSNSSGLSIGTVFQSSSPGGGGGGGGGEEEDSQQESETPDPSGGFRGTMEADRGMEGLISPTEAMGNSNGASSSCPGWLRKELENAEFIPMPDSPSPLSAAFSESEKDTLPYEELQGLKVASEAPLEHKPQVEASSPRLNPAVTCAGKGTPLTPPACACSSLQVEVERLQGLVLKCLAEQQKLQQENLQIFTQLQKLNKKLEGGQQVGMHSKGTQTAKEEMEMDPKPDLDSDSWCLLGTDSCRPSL

[13] = target: Small conductance calcium-activated potassium channel protein 1 (Rattus norvegicus) (UniProt P70606); assay: K+/CA+/R Cerep selectivity data (BI); settings: Compound concentration 20.0 uM
[14] = target: Mu-type opioid receptor (Homo sapiens) (UniProt P35372); assay: MU/H Cerep selectivity data (BI); settings: Compound concentration 20.0 uM
[15] = target: Glutamate NMDA receptor (Rattus norvegicus) (UniProt P35439+Q00959+Q00960+Q00961+Q62645+Q8VHN2+Q9R1M7); assay: PCP/R Cerep selectivity data (BI); assay type: protein-complex assay; settings: Compound concentration 20.0 uM
[16] = target: B2 bradykinin receptor (Homo sapiens) (UniProt P30411); assay: B2/HUM Cerep selectivity data (BI); settings: Compound concentration 20.0 uM
[17] = target: NT-3 growth factor receptor (Homo sapiens) (UniProt Q16288); assay: NTRK3 Invitrogen selectivity data (BI); settings: Compound concentration 3.0 uM
[18] = target: Substance-P receptor (Homo sapiens) (UniProt P25103); assay: NK1/HU Eurofins-Panlabs selectivity data (BI); settings: Compound concentration 10.0 uM
[19] = target: Beta-2 adrenergic receptor (Homo sapiens) (UniProt P07550); assay: BETA2/HUM Cerep selectivity data (BI); settings: filed as antagonist, Compound concentration 20.0 uM
[20] = target: cGMP-inhibited 3',5'-cyclic phosphodiesterase 3B (Homo sapiens) (UniProt Q13370); assay: PDE3B Cerep selectivity data (BI); settings: Compound concentration 20.0 uM

Measured: residual activity

Prostaglandin G/H synthase 2 (Homo sapiens), sequence (P35354 whole entry): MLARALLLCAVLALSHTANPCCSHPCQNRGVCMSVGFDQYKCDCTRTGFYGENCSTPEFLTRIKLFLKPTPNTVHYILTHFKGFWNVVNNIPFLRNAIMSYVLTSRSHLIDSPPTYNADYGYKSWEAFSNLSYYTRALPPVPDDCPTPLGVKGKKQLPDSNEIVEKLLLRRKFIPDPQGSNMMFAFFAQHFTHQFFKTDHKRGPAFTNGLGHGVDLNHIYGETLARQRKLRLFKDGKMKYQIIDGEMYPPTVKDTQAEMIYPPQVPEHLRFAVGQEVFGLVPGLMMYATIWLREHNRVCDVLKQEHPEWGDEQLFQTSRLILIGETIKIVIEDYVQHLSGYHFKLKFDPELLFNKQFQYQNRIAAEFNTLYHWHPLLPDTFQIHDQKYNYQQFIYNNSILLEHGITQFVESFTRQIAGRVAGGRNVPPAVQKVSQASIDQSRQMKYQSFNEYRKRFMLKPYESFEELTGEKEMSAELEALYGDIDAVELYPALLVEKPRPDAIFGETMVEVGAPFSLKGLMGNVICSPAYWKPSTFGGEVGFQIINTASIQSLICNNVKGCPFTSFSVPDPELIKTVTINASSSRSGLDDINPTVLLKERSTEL
Substance-P receptor (Homo sapiens), sequence (P25103 whole entry): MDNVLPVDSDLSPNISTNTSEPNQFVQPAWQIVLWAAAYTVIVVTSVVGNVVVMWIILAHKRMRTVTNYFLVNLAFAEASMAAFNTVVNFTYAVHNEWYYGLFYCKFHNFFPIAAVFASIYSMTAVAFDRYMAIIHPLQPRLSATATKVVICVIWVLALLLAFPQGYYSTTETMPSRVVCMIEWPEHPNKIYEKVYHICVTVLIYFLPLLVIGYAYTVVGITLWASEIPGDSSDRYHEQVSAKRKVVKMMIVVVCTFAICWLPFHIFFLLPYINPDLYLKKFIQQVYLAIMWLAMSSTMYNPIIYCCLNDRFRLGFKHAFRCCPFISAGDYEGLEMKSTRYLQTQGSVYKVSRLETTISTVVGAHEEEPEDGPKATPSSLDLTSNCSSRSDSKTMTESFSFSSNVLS
Small conductance calcium-activated potassium channel protein 1 (Rattus norvegicus), sequence (P70606 whole entry): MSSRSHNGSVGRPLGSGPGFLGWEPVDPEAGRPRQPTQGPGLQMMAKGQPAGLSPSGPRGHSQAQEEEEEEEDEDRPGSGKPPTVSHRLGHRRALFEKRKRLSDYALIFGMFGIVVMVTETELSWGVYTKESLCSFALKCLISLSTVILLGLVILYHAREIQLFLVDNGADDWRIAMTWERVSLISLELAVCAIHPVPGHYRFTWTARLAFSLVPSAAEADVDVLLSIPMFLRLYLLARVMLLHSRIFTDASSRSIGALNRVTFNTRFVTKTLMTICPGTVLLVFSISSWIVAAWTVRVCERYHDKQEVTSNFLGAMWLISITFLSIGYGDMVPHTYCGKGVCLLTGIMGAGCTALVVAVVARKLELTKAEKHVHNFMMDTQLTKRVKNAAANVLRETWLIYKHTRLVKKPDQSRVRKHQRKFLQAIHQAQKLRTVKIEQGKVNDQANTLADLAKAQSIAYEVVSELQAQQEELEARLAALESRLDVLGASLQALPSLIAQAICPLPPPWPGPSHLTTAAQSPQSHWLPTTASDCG
Beta-2 adrenergic receptor (Homo sapiens), sequence (P07550 whole entry, looked up): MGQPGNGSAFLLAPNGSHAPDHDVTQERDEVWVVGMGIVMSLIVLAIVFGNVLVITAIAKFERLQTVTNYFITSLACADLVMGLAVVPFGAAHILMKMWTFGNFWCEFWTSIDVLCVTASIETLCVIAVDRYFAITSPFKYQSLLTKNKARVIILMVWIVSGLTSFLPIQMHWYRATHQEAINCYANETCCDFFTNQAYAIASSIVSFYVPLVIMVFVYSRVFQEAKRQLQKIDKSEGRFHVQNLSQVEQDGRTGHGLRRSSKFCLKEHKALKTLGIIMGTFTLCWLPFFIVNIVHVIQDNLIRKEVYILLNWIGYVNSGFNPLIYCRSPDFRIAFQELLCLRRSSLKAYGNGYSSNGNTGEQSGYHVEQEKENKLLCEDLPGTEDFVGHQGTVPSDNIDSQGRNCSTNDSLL
Glucocorticoid receptor (Homo sapiens), sequence (P04150 whole entry): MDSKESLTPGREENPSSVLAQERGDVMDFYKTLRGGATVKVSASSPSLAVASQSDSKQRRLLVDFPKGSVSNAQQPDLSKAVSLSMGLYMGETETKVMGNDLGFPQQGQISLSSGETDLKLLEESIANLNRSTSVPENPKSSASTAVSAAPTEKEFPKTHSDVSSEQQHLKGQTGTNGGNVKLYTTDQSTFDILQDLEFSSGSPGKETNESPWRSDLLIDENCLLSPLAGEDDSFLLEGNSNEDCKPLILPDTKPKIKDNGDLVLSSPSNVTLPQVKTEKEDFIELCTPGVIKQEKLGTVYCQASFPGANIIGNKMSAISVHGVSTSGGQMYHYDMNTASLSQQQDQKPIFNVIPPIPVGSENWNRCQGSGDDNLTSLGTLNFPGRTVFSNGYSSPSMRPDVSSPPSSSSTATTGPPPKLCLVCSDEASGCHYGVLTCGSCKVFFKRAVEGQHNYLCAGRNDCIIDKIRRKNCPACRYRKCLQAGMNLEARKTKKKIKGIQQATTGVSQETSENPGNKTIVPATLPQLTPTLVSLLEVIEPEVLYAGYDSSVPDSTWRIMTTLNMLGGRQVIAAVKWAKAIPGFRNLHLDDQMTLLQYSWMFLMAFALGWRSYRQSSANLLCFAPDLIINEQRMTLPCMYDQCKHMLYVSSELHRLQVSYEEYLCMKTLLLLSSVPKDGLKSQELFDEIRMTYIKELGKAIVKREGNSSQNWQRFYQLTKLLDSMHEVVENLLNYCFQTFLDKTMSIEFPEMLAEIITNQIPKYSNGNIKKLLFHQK
B2 bradykinin receptor (Homo sapiens), sequence (P30411 whole entry): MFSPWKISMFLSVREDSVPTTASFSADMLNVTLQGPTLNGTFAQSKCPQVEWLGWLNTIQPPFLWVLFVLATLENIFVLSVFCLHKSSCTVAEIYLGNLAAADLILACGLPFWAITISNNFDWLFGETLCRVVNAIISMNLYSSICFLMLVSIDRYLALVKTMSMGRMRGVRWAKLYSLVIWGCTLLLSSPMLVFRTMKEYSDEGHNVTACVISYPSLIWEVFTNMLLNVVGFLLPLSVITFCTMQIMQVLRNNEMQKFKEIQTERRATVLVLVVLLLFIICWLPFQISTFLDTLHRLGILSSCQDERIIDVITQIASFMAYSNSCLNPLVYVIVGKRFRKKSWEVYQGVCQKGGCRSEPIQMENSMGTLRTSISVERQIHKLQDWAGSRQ
Insulin receptor (Homo sapiens), sequence (P06213 28-758 limits assumed): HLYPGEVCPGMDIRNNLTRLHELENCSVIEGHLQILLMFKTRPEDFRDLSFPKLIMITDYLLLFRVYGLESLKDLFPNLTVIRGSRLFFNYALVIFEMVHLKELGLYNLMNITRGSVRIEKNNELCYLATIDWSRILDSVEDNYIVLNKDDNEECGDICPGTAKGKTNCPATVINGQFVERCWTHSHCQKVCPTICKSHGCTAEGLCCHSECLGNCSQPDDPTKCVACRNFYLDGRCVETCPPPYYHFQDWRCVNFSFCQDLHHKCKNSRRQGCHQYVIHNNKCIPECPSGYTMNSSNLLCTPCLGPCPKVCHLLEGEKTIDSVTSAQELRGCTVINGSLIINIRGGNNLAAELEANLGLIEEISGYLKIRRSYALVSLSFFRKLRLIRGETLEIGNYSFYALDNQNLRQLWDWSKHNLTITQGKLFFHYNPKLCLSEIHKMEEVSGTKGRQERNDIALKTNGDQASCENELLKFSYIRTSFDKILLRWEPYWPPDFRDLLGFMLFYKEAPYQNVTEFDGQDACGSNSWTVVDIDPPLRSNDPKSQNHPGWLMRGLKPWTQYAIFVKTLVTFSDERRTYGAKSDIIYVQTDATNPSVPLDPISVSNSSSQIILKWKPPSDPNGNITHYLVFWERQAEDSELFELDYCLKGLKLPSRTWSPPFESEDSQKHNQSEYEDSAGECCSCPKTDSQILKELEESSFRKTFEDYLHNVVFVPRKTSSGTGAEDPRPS
Insulin receptor (Homo sapiens), sequence (P06213 763-1382 limits assumed): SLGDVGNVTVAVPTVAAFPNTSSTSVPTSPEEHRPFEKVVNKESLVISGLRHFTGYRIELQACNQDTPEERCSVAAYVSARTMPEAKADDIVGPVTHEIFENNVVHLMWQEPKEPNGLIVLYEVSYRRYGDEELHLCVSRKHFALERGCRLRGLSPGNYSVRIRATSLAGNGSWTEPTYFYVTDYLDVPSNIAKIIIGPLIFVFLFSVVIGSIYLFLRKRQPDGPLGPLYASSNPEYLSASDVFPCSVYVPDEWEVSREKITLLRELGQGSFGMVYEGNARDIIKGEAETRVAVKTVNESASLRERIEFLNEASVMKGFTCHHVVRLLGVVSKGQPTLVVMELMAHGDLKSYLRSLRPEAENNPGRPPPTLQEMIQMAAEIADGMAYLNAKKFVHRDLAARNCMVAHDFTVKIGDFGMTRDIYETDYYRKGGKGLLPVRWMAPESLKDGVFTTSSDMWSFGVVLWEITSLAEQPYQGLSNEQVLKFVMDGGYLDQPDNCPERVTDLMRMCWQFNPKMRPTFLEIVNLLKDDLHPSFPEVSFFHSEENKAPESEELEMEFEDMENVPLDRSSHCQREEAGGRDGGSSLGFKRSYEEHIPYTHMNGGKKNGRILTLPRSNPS
Mu-type opioid receptor (Homo sapiens), sequence (P35372 whole entry): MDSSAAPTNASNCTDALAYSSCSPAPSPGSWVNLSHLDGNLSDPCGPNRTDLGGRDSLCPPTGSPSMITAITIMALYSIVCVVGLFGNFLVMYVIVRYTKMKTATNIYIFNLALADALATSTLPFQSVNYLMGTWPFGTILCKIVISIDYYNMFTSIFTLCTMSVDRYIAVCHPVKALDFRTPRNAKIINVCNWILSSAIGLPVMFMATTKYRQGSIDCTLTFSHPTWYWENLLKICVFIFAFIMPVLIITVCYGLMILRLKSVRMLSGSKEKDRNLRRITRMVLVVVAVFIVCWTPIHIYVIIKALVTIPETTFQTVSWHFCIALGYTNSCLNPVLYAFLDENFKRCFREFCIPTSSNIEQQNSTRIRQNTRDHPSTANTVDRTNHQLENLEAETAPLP

CN(C)C(=O)Cn1cc(-c2nc([C@@](C)(c3ccc(-c4cnc(N)nc4)cc3)C3CC3)no2)cn1 [BI 665915]
inactive: [1] 100% | [2] 115% | [3] 96% | [4] 93% | [5] 97% | [6] 106% | [7] 64% | [8] 100% | [9] 111% | [10] 97% | [11] 93.5% | [12] 106% | [13] 88% | [14] 103% | [15] 100% | [16] 102% | [17] 93% | [18] 104% | [19] 98% | [20] 95%
